Data published in a compilation of properties of binary mixtures (doi:10.1007/s10953-010-9562-5).

Test: xn = mol fraction of the nth substance listed
Settings: 101 kPa, x1 = 1

CC1COC(=O)O1 (stereo unspecified) + CCCC[N+]1(C)CCCC1.O=S(=O)([N-]S(=O)(=O)C(F)(F)F)C(F)(F)F
Settings | electrical conductivity [S/m] | viscosity [mPa·s]
263.15 K | 0.001 | –
268.15 K | 0.001 | –
273.15 K | 0.001 | –
278.15 K | 0.001 | –
283.15 K | 0.001 | –
288.15 K | 0.001 | –
298.15 K | 0.002 | 2.52
308.15 K | 0.002 | 2.14
318.15 K | – | 1.85
